We go through 43 compounds from patent US9150568B2, “Compositions and methods for modulating FXR” (NOVARTIS AG, priority 2010, dated 2015).

The experiment concerns the target T1, human Farnesoid X Receptor (FXR) ligand binding domain (GST-FXR LBD) (Homo sapiens, UniProt Q96RI1).
T1 construct: purchased Invitrogen
T1 sequence (Q96RI1 193-472 isoform Q96RI1-2): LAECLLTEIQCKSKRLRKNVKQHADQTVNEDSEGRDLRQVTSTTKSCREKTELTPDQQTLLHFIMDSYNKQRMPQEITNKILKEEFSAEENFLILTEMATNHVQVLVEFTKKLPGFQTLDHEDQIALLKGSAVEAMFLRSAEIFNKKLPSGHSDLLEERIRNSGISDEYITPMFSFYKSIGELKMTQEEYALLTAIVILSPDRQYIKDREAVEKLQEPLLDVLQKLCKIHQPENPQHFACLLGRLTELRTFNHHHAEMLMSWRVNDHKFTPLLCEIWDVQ
The experiment can be described thus: Human GST-FXR LBD co-activator interaction assay (HTRF). Conditions: GST-FXR LBD / biotin-SRC-1 peptide FRET; response relative to GW4064; read-out: FXR Co-activator interaction assay (EC50). The format is biochemical. A digest of the protocol: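 FRET (HTRF) read-out of ligand-induced binding between GST-FXR LBD and an SRC-1 peptide, detected with anti-GST cryptate and streptavidin-XL665 in buffer with 50 mM KF. Response % was normalized to DMSO and to the maximal GW4064 response. EC50 came from a four-parameter fit.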
In general terms: In TR-FRET formats the signal depends on donor and acceptor labels being close together.
As usually defined, the EC50 is the midpoint of the concentration-response curve. On to `O=C(O)c1cc(F)c2nc(N3[C@@H]4CC[C@H]3C[C@@H](OCc3c(-c5ccccc5C5CC5)noc3C3CC3)C4)sc2c1` [Example 30-23], for which the EC50 is 0.4 nM.
The result for `O=C(O)c1ccc(N2[C@@H]3CC[C@H]2C[C@@H](OCc2c(-c4ccccc4C4CC4)noc2C2CC2)C3)nc1` [Example 30-24] reads 4 nM; that for `Cc1cc(C(=O)O)cnc1N1[C@@H]2CC[C@H]1C[C@@H](OCc1c(-c3c(F)cccc3F)noc1C1CC1)C2` [Example 30-25], 3 nM; that for `Cc1cc(N2C3CC[C@H]2CC(OCc2c(-c4c(F)cccc4F)noc2C2CC2)C3)ncc1C(=O)O` (stereo partly shown) [Example 30-26], 7 nM.
With `O=C(O)c1cccc(N2[C@@H]3CC[C@H]2C[C@@H](OCc2c(-c4ccccc4OC(F)F)noc2C2CC2)C3)n1` [Example 30-27], the concentration for a half-maximal effect (EC50) worked out at 7 nM.
Then `COC(=O)c1cc(C)c2nc(N3C4CC[C@H]3CC(OCc3c(-c5ccccc5OC(F)(F)F)noc3C3CC3)C4)sc2c1` (stereo partly shown) [Example 30-28], with 12 nM; and `Cc1cc(C(=O)O)cc2sc(N3C4CC[C@H]3CC(OCc3c(-c5ccccc5OC(F)(F)F)noc3C3CC3)C4)nc12` (stereo partly shown) [Example 30-29], with 0.5 nM.
The result for `COC(=O)c1cc(C)c2nc(N3C4CC[C@H]3CC(OCc3c(-c5ccccc5C(F)(F)F)noc3C3CC3)C4)sc2c1` (stereo partly shown) [Example 30-30] reads 120 nM; that for `Cc1cc(C(=O)O)cc2sc(N3C4CC[C@H]3CC(OCc3c(-c5ccccc5C(F)(F)F)noc3C3CC3)C4)nc12` (stereo partly shown) [Example 30-31], 7 nM.
The result for `COC(=O)c1cc(C)c2nc(N3[C@@H]4CC[C@H]3C[C@@H](OCc3c(-c5c(F)cccc5F)noc3C3CC3)C4)sc2c1` [Example 30-32] reads 149 nM.
In the case of `Cc1cc(C(=O)O)cc2sc(N3C4CC[C@H]3CC(OCc3c(-c5c(F)cccc5F)noc3C3CC3)C4)nc12` (stereo partly shown) [Example 30-33], the EC50 worked out at 0.7 nM.
The result for `Cc1cc(C(=O)O)cc2sc(N3C4CC[C@H]3CC(OCc3c(-c5ccccc5F)noc3C3CC3)C4)nc12` (stereo partly shown) [Example 30-34] reads 1.8 nM; that for `Cc1cc(C(=O)O)cc2sc(N3C4CC[C@H]3CC(OCc3c(-c5ccc(F)cc5)noc3C3CC3)C4)nc12` (stereo partly shown) [Example 30-35], 46 nM.
The result for `Cc1ccccc1-c1noc(C2CC2)c1COC1CC2CC[C@@H](C1)N2c1nc2c(C)cc(C(=O)O)cc2s1` (stereo partly shown) [Example 30-36] reads 1.1 nM.
Take `COC(=O)c1cc(C)c2nc(N3C4CC[C@H]3CC(OCc3c(-c5ccccc5C)noc3C3CC3)C4)sc2c1` (stereo partly shown) [Example 30-37]: the EC50 came out at 140 nM.
As to `Cc1cc(C(=O)O)cc2sc(N3[C@@H]4CC[C@H]3C[C@@H](OCc3c(-c5ccc(F)cc5F)noc3C3CC3)C4)nc12` [Example 30-38], the EC50 came to 1.8 nM.
Then `COC(=O)c1cc(Br)c2nc(N3C4CC[C@H]3CC(OCc3c(-c5ccccc5OC(F)(F)F)noc3C3CC3)C4)sc2c1` (stereo partly shown) [Example 30-39], with 36 nM; and `O=C(O)c1cc(Br)c2nc(N3C4CC[C@H]3CC(OCc3c(-c5ccccc5OC(F)(F)F)noc3C3CC3)C4)sc2c1` (stereo partly shown) [Example 30-40], with 0.7 nM; and `O=C(O)c1cc(C2CC2)nc(N2C3CC[C@H]2CC(OCc2c(-c4ccccc4OC(F)F)noc2C2CC2)C3)n1` (stereo partly shown) [Example 30-41], with 4 nM.
For `O=C(O)c1cc(C2CC2)nc(N2C3CC[C@H]2CC(OCc2c(-c4ccccc4OC(F)(F)F)noc2C2CC2)C3)n1` (stereo partly shown) [Example 30-42], the EC50 stood at 3 nM.
The result for `O=C(O)c1cc(C2CC2)nc(N2C3CC[C@H]2CC(OCc2c(-c4ccccc4C(F)(F)F)noc2C2CC2)C3)n1` (stereo partly shown) [Example 30-43] reads 4.6 nM; that for `Cc1nc(N2C3CC[C@H]2CC(OCc2c(-c4ccccc4OC(F)(F)F)noc2C2CC2)C3)ccc1C(=O)O` (stereo partly shown) [Example 30-44], 8 nM.
Then `Cc1nc(N2C3CC[C@H]2CC(OCc2c(-c4ccccc4C(F)(F)F)noc2C2CC2)C3)ccc1C(=O)O` (stereo partly shown) [Example 30-45], with 18 nM; and `Cc1ccccc1-c1noc(C2CC2)c1CO[C@H]1C[C@H]2CC[C@@H](C1)N2c1ccc(C(=O)O)c(C)n1` [Example 30-46], with 220 nM; and `Cc1nc(N2[C@@H]3CC[C@H]2C[C@@H](OCc2c(-c4c(F)cccc4F)noc2C2CC2)C3)ccc1C(=O)O` [Example 30-47], with 120 nM.
The result for `Cc1nc(N2[C@@H]3CC[C@H]2C[C@@H](OCc2c(-c4ccccc4F)noc2C2CC2)C3)ccc1C(=O)O` [Example 30-48] reads 34 nM; that for `Cc1cccc(C)c1-c1noc(C2CC2)c1COC1CC2CC[C@@H](C1)N2c1ccc(C(=O)O)c(C)n1` (stereo partly shown) [Example 30-49], 140 nM.
Turning to `Cc1nc(N2[C@@H]3CC[C@H]2C[C@@H](OCc2c(-c4cccc(F)c4)noc2C2CC2)C3)ccc1C(=O)O` [Example 30-50], the EC50 stood at 700 nM.
Then `Cc1cccc(F)c1-c1noc(C2CC2)c1CO[C@H]1C[C@H]2CC[C@@H](C1)N2c1ccc(C(=O)O)c(C)n1` [Example 30-51], with 52 nM; and `Cc1nc(N2C3CC[C@H]2CC(OCc2c(-c4c(F)cccc4Cl)noc2C2CC2)C3)ccc1C(=O)O` (stereo partly shown) [Example 30-52], with 26 nM; and `O=C(O)c1ccc2nc(N3C4CC[C@H]3CC(OCc3c(-c5ccccc5OC(F)(F)F)noc3C3CC3)C4)ccc2c1` (stereo partly shown) [Example 30-53], with 1 nM.
On to `O=C(O)c1ccc2nc(N3C4CC[C@H]3CC(OCc3c(-c5ccccc5C(F)(F)F)noc3C3CC3)C4)ccc2c1` (stereo partly shown) [Example 30-54], for which the EC50 was found to be 16 nM.
Then `O=C(O)c1cccc2nc(N3C4CC[C@H]3CC(OCc3c(-c5ccccc5OC(F)(F)F)noc3C3CC3)C4)ccc12` (stereo partly shown) [Example 30-55], with 1 nM; and `O=C(O)c1ccc2c(N3C4CC[C@H]3CC(OCc3c(-c5ccccc5OC(F)(F)F)noc3C3CC3)C4)ncnc2c1` (stereo partly shown) [Example 30-56], with 5.7 nM.
Then `Cn1ccc2c(N3C4CC[C@H]3CC(OCc3c(-c5ccccc5OC(F)(F)F)noc3C3CC3)C4)ncc(C(=O)O)c21` (stereo partly shown) [Example 30-58], with 210 nM.
Consider `O=C(O)c1cnn2ccc(N3C4CC[C@H]3CC(OCc3c(-c5ccccc5OC(F)(F)F)noc3C3CC3)C4)nc12` (stereo partly shown) [Example 30-59], for which the EC50 was found to be 92 nM.
Then `O=C(O)c1cnc2ccc(N3C4CC[C@H]3CC(OCc3c(-c5ccccc5OC(F)(F)F)noc3C3CC3)C4)nn12` (stereo partly shown) [Example 30-60], with 94 nM; and `O=C(O)c1ccc2nc(N3C4CC[C@H]3CC(OCc3c(-c5ccc(F)cc5F)noc3C3CC3)C4)sc2c1` (stereo partly shown) [Example 30-61], with 2 nM.
Take `O=C(O)c1ccc(N2C3CC[C@H]2CC(OCc2c(-c4ccc(F)cc4F)noc2C2CC2)C3)nc1` (stereo partly shown) [Example 30-63]: the EC50 stood at 57 nM.
In the case of `COc1cc(C(=O)O)cc2sc(N3C4CC[C@H]3CC(OCc3c(-c5cccc(F)c5F)noc3C3CC3)C4)nc12` (stereo partly shown) [Example 30-64], the EC50 was 7 nM.
The result for `O=C(O)c1ccc(N2[C@@H]3CC[C@H]2C[C@@H](OCc2c(-c4cccc(F)c4F)noc2C2CC2)C3)nc1` [Example 30-65] reads 86 nM; that for `Cc1cc(C(=O)O)nc(N2C3CC[C@H]2CC(OCc2c(-c4cccc(F)c4F)noc2C2CC2)C3)n1` (stereo partly shown) [Example 30-66], 220 nM.
The result for `COc1cc(C(=O)O)cc2sc(N3[C@@H]4CC[C@H]3C[C@@H](OCc3c(-c5ccccc5F)noc3C3CC3)C4)nc12` [Example 30-67] reads 0.5 nM.
